Experimental findings from patent US11339151B2, “Aliphatic acid amide derivative” (Sumitomo Dainippon Pharma Co., Ltd., priority 2019, dated 2022) are described below.

Series [1] can be described thus: Test 3-1: metabolic stability test in human hepatic microsome. In kind it is in vitro ADME. To be noted: microsome 0.1 mg/mL, test compound 0.1 μmol/L, 37° C., 30 minutes. The method, then:
Test 3-1: Metabolic Stability Test in Human Hepatic Microsome
The metabolic stability of the present compound in human hepatic microsome was evaluated as mentioned below. Human hepatic microsome was obtained from Xenontech. Human hepatic microsome, NADPH, and each test compound were mixed in 25 mmol/L phosphate buffer solution (pH 7.4) to reach the following concentrations as shown below, and the mixture was incubated at 37° C. for 30 minutes. • Human hepatic microsome: 0.1 mg/mL • NADPH: 3.2 mmol/L • Test compound: 0.1 μmol/L
The residual ratio of test compound in each sample after 30 minutes was measured by LC-MS, and the metabolic stability in human hepatic microsome was calculated from the following formula. Metabolic stability in human hepatic microsome (mL/min/mg protein)=−LN (residual ratio)/30/0.1

In series [2] the target is T1, human 5-HT7 receptor (Homo sapiens (Human), UniProt P34969). Nature of the series: Test 1: binding activity for human 5-HT7 receptor ([3H]SB-269970, CHO cell membrane fraction). Conditions: [3H]SB-269970, room temperature 60 minutes. The method, then:
(§1) Ki value was evaluated from dissociation constant which was calculated from saturated binding tests, and a substrate concentration, and it was used as an index for binding affinity.

Series [3] concerns the target hERG channel (Homo sapiens (Human), UniProt Q12809). The series is described as follows: Test 5: inhibitory activity for hERG channel (whole cell patch clamp, hERG-CHO cells). It is filed as cell-based. To be noted: hERG-CHO cells, auto patch clamp. The method, then: Test 5: Evaluation of Inhibitory Activity for hERG Channel
Inhibitory activity of the present compound for hERG channel was measured by whole cell patch clamp method with an auto patch clamp system using CHO cells in which hERG channel involved in human rapidly activating delayed rectifier potassium current (IKr) was forcibly expressed.
hERG-CHO cells purchased from ChanTest Cop. were cultured in a CO2 incubator at 37° C., and dissociated from a flask with trypsin shortly before the measurement of hERG current to prepare a cell suspension.
The cell suspension, the extracellular fluid, the intracellular fluid, and the measurement plate were set in an auto patch clamp system, and hERG current was measured by whole cell patch clamp method. […] Each pulse interval was 15 seconds. The data analysis was carried out with Qube Assay Software (Sophion Sophion). The test was carried out by applying incrementally 4 concentrations of each test compound, and the average of the maximum peak tail currents which were obtained from the last 3 stimulations in each concentration was determined as the evaluated data.

For series [4], the target named is T1, human 5-HT7 receptor. The series is described as follows: Test 2: antagonist activity for human 5-HT7 receptor (aequorin luminescence, CHO-K1 cells). It is filed as cell-based. Conditions: Gα16. The procedure: Test 2: Evaluation of Antagonist Activity for Human 5-HT2A Receptor and Human 5-HT7 Receptor
Aequorin, Gα 16 protein, and each receptor were transiently expressed in CHO-K1 cells (Chinese hamster ovary). The cells were cultivated in a CO2 incubator at 37° C. overnight, seeded into a 384-well plate, and stood at room temperature for 2 hours. Each compound dissolved in DMSO was added thereto, and changes in luminescence were measured by FDSS/μCELL drug discovery screening support system (Hamamatsu Photonics K.K.). As for antagonist activity, inhibitory activity of each compound was calculated by setting the luminescence level of wells to which 10 μmol/L endogenous ligand was added as 100%.

Series [5] deals with human D2 receptor (Homo sapiens (Human), UniProt P14416). The series is described as follows: Test 1: binding activity for human D2 receptor ([3H]Spiperone, CHO cell membrane fraction). Conditions: [3H]Spiperone, room temperature 60 minutes. The procedure: as §1
Sequence of human D2 receptor (P14416 whole entry): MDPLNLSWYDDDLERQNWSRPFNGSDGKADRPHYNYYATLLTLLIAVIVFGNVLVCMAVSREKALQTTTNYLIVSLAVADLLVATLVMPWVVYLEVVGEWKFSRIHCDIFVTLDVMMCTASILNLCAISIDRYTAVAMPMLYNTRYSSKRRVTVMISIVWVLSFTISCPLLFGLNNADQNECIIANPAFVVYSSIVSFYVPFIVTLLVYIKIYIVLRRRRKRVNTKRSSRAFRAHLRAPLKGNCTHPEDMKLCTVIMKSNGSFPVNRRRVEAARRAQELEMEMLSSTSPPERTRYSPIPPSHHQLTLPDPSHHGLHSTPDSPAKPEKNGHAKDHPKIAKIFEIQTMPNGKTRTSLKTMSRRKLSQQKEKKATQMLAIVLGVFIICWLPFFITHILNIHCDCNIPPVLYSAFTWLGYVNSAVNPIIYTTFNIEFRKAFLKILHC

pIC50, pKi: −log10 of the molar value.

T1 sequence (P34969 whole entry): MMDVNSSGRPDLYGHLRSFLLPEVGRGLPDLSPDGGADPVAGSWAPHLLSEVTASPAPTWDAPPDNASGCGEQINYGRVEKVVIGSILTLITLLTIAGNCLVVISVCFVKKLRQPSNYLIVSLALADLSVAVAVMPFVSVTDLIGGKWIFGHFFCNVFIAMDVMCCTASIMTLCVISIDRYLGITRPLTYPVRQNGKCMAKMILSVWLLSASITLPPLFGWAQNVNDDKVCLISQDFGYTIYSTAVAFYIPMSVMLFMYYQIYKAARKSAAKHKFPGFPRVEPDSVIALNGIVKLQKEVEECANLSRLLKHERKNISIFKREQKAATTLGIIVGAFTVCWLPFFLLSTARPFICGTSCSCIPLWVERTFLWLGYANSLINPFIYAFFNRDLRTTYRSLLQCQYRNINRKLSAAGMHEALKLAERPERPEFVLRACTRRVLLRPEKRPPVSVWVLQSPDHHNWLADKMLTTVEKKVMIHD
Sequence of hERG channel (Q12809 whole entry): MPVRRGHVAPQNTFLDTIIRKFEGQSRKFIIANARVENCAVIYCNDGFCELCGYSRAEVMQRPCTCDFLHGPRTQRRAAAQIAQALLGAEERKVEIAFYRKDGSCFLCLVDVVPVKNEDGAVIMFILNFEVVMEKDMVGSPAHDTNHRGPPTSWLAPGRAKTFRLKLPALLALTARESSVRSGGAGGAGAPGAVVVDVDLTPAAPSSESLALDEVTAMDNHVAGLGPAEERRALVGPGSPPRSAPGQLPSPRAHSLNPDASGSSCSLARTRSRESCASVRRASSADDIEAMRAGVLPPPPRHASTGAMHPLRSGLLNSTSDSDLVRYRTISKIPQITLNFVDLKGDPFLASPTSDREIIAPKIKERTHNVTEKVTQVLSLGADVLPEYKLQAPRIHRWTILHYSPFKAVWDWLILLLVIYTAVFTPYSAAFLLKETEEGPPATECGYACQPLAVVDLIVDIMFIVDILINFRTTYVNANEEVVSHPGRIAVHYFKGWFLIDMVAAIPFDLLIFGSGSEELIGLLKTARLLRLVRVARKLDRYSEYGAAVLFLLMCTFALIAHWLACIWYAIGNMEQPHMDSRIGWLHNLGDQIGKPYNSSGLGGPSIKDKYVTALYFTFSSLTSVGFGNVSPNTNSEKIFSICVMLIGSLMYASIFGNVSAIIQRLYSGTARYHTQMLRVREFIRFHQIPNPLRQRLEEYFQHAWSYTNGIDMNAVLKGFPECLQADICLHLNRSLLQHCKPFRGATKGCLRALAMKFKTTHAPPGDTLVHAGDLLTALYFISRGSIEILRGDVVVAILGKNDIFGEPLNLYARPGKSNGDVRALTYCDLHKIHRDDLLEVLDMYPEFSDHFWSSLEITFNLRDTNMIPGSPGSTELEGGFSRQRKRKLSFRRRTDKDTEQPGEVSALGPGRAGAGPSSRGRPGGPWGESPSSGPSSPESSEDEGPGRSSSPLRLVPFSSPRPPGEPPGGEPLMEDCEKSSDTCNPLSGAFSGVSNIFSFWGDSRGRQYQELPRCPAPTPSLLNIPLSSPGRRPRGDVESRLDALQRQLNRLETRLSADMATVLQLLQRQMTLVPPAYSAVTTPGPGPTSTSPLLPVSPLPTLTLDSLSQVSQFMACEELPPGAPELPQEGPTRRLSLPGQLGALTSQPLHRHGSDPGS

On to `CCN(CCN1CCC(c2noc3cc(F)ccc23)CC1)C(=O)C1CN(C(C)=O)CCC1O` (centres unmarked) [Example 74], for which, in series [1], the “Metabolic stability in human hepatic microsome” value (from here on “Metabolic stability”) was less than 0.05 mL/min/mg protein. Further, the pKi in series [2] is 8.17; in series [5] it was 6.86. In addition, the pIC50 is 5.17 in series [3] and 7.11 in series [4].

As to `CCN(CCN1CCC(c2c[nH]c3ccccc23)CC1)C(=O)CCO` [Example 47], the “Metabolic stability” value in series [1] is on record as less than 0.05 mL/min/mg protein. In addition, the pKi in series [2] was 8.05; in series [5] it was 6.34. Also, the pIC50 in series [3] was 5.27; in series [4] it was 7.37.

Turning to `CC[C@@H](O)C(=O)N(CC)CCN1CCC(c2noc3cc(F)ccc23)CC1` [Example 29], in series [1], the “Metabolic stability” value is given as less than 0.05 mL/min/mg protein. Besides, the pKi in series [2] was 8.59; in series [5] it was 6.84. Further, the results for the pIC50 in series [3] and in series [4] were 6.05 and 7.00, respectively.

On to `CCN(CCN1CCN(c2noc3cc(F)ccc23)CC1)C(=O)C(C)O` (centres unmarked) [Example 27], for which the “Metabolic stability” value in series [1] is listed as less than 0.05 mL/min/mg protein. The pKi in series [2] was 7.95; in series [5] it was 5.66. The pIC50 was less than 5.00 in series [3] and 7.14 in series [4].

Regarding `CCN(CCN1CCC(c2noc3cc(F)ccc23)CC1)C(=O)C1CNCC1O` (centres unmarked) [Example 66], the “Metabolic stability” value in series [1] is less than 0.05 mL/min/mg protein. In addition, the negative logarithm of the Ki (pKi) was 8.27 in series [2] and 6.67 in series [5]. For the same molecule, the negative logarithm of the IC50 (pIC50) in series [3] was less than 5.00; in series [4], 7.15.

As to `CCN(CCN1CCC(c2noc3cc(F)ccc23)CC1)C(=O)C(C)(C)O` [Example 6], the “Metabolic stability” value in series [1] amounted to 0.053 mL/min/mg protein. Moreover, the negative-log Ki (pKi) in series [2] was 8.24; in series [5] it was 6.56. The pIC50 is 5.82 in series [3] and 7.18 in series [4].

`CCN(CCN1CCC(c2noc3cc(F)ccc23)CC1)C(=O)C1CCCCC1O` (centres unmarked) [Example 33]: in series [1], the “Metabolic stability” value is 0.268 mL/min/mg protein. Besides, the values for the pKi in series [2] and in series [5] were 8.80 and 7.26, respectively. Also, the values for the pIC50 in series [3] and in series [4] were 5.66 and 7.23, respectively.

`CCN(CCN1CCC(c2c[nH]c3ccccc23)CC1)C(=O)[C@@H](C)O` [Example 49]: in series [1], the “Metabolic stability” value is less than 0.05 mL/min/mg protein. Further, the pKi in series [2] is 7.65; in series [5], less than 6.00. Moreover, the pIC50 was less than 5.00 in series [3] and 7.80 in series [4].

In the case of `CCN(CCN1CCC(c2noc3cc(F)ccc23)CC1)C(=O)C(C)CO` (centres unmarked) [Example 37], the “Metabolic stability” value in series [1] is given as less than 0.05 mL/min/mg protein. Moreover, the pKi in series [2] was 8.96; in series [5], more than 7.00. Moreover, the pIC50 in series [3] was less than 5.00; in series [4], 7.18.

For `CCN(CCN1CCN(c2noc3ccccc23)CC1)C(=O)C(C)O` (centres unmarked) [Example 26], the “Metabolic stability” value in series [1] is listed as less than 0.05 mL/min/mg protein. Besides, the pKi is 7.66 in series [2] and less than 5.00 in series [5]. Besides, the pIC50 is less than 5.00 in series [3] and 7.15 in series [4].

For the molecule `CCN(CCN1CCC(c2noc3ccccc23)CC1)C(=O)C(C)O` (centres unmarked) [Example 25], the “Metabolic stability” value in series [1] is on record as less than 0.05 mL/min/mg protein. The pKi in series [2] is 8.11; in series [5] it was 5.86. Further, the pIC50 is less than 5.00 in series [3] and 7.59 in series [4].

For the molecule `CCN(CCN1CCC(c2noc3cc(F)ccc23)CC1)C(=O)C(C)(C)CO` [Example 7], the “Metabolic stability” value in series [1] came to 0.08 mL/min/mg protein. The pKi is 9.00 in series [2] and 7.10 in series [5]. For the same molecule, the pIC50 in series [3] is 5.46; in series [4], 7.96.

On to `CCN(CCN1CCC(n2ncc3cc(F)ccc32)CC1)S(=O)(=O)CCO` [Example 63], for which the “Metabolic stability” value in series [1] is less than 0.05 mL/min/mg protein. The pKi in series [2] is 8.16; in series [5] it was 6.27. Further, the pIC50 is 4.84 in series [3] and 7.34 in series [4].

Turning to `CCN(CCN1CCC(c2noc3ccc(C)cc23)CC1)S(=O)(=O)CCO` [Example 59], the “Metabolic stability” value in series [1] is reported as 0.079 mL/min/mg protein. Also, the negative logarithm of the Ki (pKi) in series [2] is 7.87; in series [5], less than 6.00. Moreover, the pIC50 in series [3] was less than 5.00; in series [4] it was 7.21.

`CCN(CCN1CCC(c2noc3cc(F)ccc23)CC1)C(=O)C(O)CCC(=O)OC` (centres unmarked) [Example 5]: the “Metabolic stability” value in series [1] is on record as 0.186 mL/min/mg protein. For the same molecule, the figures for the negative-log Ki (pKi) in series [2] and in series [5] were 8.62 and 6.94, respectively. Further, the negative logarithm of the IC50 (pIC50) in series [3] was 5.96; in series [4] it was 7.18.

On to `CCN(CCN1CCC(c2noc3cc(F)ccc23)CC1)C(=O)C1(O)CCCNC1` (centres unmarked) [Example 69], for which the “Metabolic stability” value in series [1] was less than 0.05 mL/min/mg protein. The pKi in series [2] was 8.82; in series [5], more than 7.00. Also, the pIC50 is less than 5.00 in series [3] and 7.07 in series [4].

Consider `CCN(CCN1CCC(c2noc3ccc(F)cc23)CC1)C(=O)[C@H](C)O` [Example 45], for which the “Metabolic stability” value in series [1] is on record as less than 0.05 mL/min/mg protein. Moreover, the pKi in series [2] is 7.65; in series [5], less than 6.52. The pIC50 in series [3] was less than 5.00; in series [4] it was 7.31.

Regarding `CCN(CCN1CCC(c2noc3cc(F)ccc23)CC1)C(=O)C1CN(C)CCC1O` (centres unmarked) [Example 76, N-Ethyl-N-{2-[4-(6-fluoro-1,2-benzoisoxazol-3-yl)piperidin-1-yl]ethyl}-4-hydroxy-1-methylpiperidine-3-carboxamide], in series [1], the “Metabolic stability” value is less than 0.05 mL/min/mg protein. Further, the pKi in series [2] was 7.84; in series [5] it was 6.71. The results for the pIC50 in series [3] and in series [4] were less than 5.00 and 7.19, respectively.

Turning to `CCN(CCCN1CCC(c2noc3cc(F)ccc23)CC1)S(=O)(=O)C(C)CO` (centres unmarked) [Example 56], the “Metabolic stability” value in series [1] is given as less than 0.05 mL/min/mg protein. The pKi in series [2] is 9.40; in series [5], more than 7.00. The negative logarithm of the IC50 (pIC50) was 5.68 in series [3] and 8.22 in series [4].

On to `CCN(CCN1CCC(c2noc3cc(F)ccc23)CC1)C(=O)C(O)C(C)C` (centres unmarked) [Example 8], for which the “Metabolic stability” value in series [1] is on record as 0.108 mL/min/mg protein. Besides, the pKi was 8.21 in series [2] and 6.53 in series [5]. Also, the pIC50 is 5.38 in series [3] and 8.10 in series [4].

For the molecule `CC(O)C(=O)N(CCN1CCC(c2noc3cc(F)ccc23)CC1)C(C)C` (centres unmarked) [Example 31], in series [1], the “Metabolic stability” value was less than 0.05 mL/min/mg protein. In addition, the pKi in series [2] was 8.92; in series [5], 7.05. The pIC50 was 5.51 in series [3] and 7.19 in series [4].

Take `CCN(CCN1CCC(c2noc3cc(F)ccc23)CC1)C(=O)C1(O)CCNC1` (centres unmarked) [Example 70]: in series [1], the “Metabolic stability” value was less than 0.05 mL/min/mg protein. For the same molecule, the pKi is 8.43 in series [2] and 7.28 in series [5]. For the same molecule, the pIC50 is less than 5.00 in series [3] and 8.05 in series [4].

Regarding `CC(O)C(=O)N(CCN1CCC(c2noc3cc(F)ccc23)CC1)CC1CC1` (centres unmarked) [Example 30], the “Metabolic stability” value in series [1] was less than 0.05 mL/min/mg protein. The pKi is 8.18 in series [2] and 6.82 in series [5]. In addition, the pIC50 in series [3] is 5.92; in series [4] it was 7.41.

Regarding `CCN(CCCN1CCC(c2noc3cc(F)ccc23)CC1)S(=O)(=O)CCO` [Example 53], the “Metabolic stability” value in series [1] is recorded as less than 0.05 mL/min/mg protein. The pKi in series [2] is 8.85; in series [5] it was more than 7.00. Besides, the results for the pIC50 in series [3] and in series [4] were 5.14 and 7.36, respectively.

Turning to `CCN(CCN1CCC(c2noc3cc(F)ccc23)CC1)C(=O)C(O)C(F)(F)F` (centres unmarked) [Example 34], in series [1], the “Metabolic stability” value is given as less than 0.05 mL/min/mg protein. Further, the pKi was 8.34 in series [2] and 6.61 in series [5]. The pIC50 in series [3] was 5.14; in series [4] it was 7.11.
